Results published in ChEMBL document CHEMBL3616474, “Synthesis of arabinose glycosyl sulfamides as potential inhibitors of mycobacterial cell wall biosynthesis” (2015).
Converted amounts (≈) assume the structure as drawn.

The compounds below were run on Mycolicibacterium smegmatis (assay: Antimicrobial activity against Mycobacterium smegmatis incubated for 18 hrs by Alamar blue assay).
Type: functional

Which MIC90 does the source give for `CCCCCCCCCCNS(N)(=O)=O` here?
Its MIC90 is 500 µg/mL (≈ 2120 µM).

Which MIC90 does the source give for `CCCCCCNS(=O)(=O)N[C@H]1OC[C@@H](O)[C@@H](O)[C@@H]1O` here?
The MIC90 was > 1000 µg/mL.

`CCCCCCCCNS(=O)(=O)N[C@H]1OC[C@@H](O)[C@@H](O)[C@@H]1O` was tested. Which MIC90 did it give?
Its MIC90 is 500 µg/mL (≈ 1470 µM).

`CCCCCCCCCCNS(=O)(=O)N[C@H]1OC[C@@H](O)[C@@H](O)[C@@H]1O` was tested. Which MIC90 did it give?
Its MIC90 is 62 µg/mL (≈ 168 µM).

With `CCCCCCCCCCCCNS(=O)(=O)N[C@H]1OC[C@@H](O)[C@@H](O)[C@@H]1O` as the compound, how does the MIC90 read?
Its MIC90 is 250 µg/mL (≈ 630 µM).

With `CCCCCCCCCCCCCCNS(=O)(=O)N[C@H]1OC[C@@H](O)[C@@H](O)[C@@H]1O` as the compound, how does the MIC90 read?
The MIC90 was > 1000 µg/mL.

`CCCCCCN(CCCCCC)S(=O)(=O)N[C@H]1OC[C@@H](O)[C@@H](O)[C@@H]1O` was tested. Which MIC90 did it give?
The MIC90 was 125 µg/mL (≈ 315 µM).

For `CCCCCCCCN(CCCCCCCC)S(=O)(=O)N[C@H]1OC[C@@H](O)[C@@H](O)[C@@H]1O`, which MIC90 is on record?
Its MIC90 is 500 µg/mL (≈ 1100 µM).

How did the MIC90 turn out when `CCCCCCCCCCN(CCCCCCCCCC)S(=O)(=O)N[C@H]1OC[C@@H](O)[C@@H](O)[C@@H]1O` was run?
Its MIC90 is > 1000 µg/mL.

With `CCCCCCCCCCCCN(CCCCCCCCCCCC)S(=O)(=O)N[C@H]1OC[C@@H](O)[C@@H](O)[C@@H]1O` as the compound, how does the MIC90 read?
The MIC90 was > 1000 µg/mL.

How did the MIC90 turn out when `CC(C)CCCC(C)CCNS(=O)(=O)N[C@H]1OC[C@@H](O)[C@@H](O)[C@@H]1O` (stereo not given in full) was run?
Its MIC90 is 125 µg/mL (≈ 339 µM).

For `O=S(=O)(NCCOCCO)N[C@H]1OC[C@@H](O)[C@@H](O)[C@@H]1O`, which MIC90 is on record?
Its MIC90 is > 1000 µg/mL.

For `O=S(=O)(NCCOCCOCCO)N[C@H]1OC[C@@H](O)[C@@H](O)[C@@H]1O`, which MIC90 is on record?
The MIC90 was > 1000 µg/mL.

Which MIC90 does the source give for `O=S(=O)(NCCOCCOCCOCCO)N[C@H]1OC[C@@H](O)[C@@H](O)[C@@H]1O` here?
The MIC90 was > 1000 µg/mL.

How did the MIC90 turn out when `NNC(=O)c1ccncc1` [ISONIAZID] was run?
Its MIC90 is 4 µg/mL (≈ 29.2 µM).
